The results in this text go back to publication PMC8179358, “An explicitly designed paratope of amyloid-β prevents neuronal apoptosis in vitro and hippocampal damage in rat brain” (Chemical Science, 2020).

Holding throughout (type): biochemical
Experiment [1] has as its system Aβ42. Briefly: DLS of Aβ42 aggregates. To be noted: untreated Aβ42 50 μM.
Description: Dynamic light scattering (DLS) measurements
DLS1,2 measurements were performed with the different Aβ42peptide samples (oligomers and mature fibrils) on a Malvern nano zetasizer (Malvern, UK) using a laser source with λ=633 nm and a detector at a scattering angle of θ = 173 degrees.
for the ThT assay, in the absence of ThT dye, for 1h, 5h, 10h and 20h min to generate oligomers and mature fibrils, respectively and the hydrodynamic diameter of them was immediately examined by DLS.
Prior to the analysis, samples were filtered through 0.45 µm PVDF membrane. The samples were placed in a disposable cuvette and held at the corresponding temperature during the analysis. For each sample, the analyses were recorded three times with 11 sub-runs using the multimodal mode. The Z-average diameter was calculated from the correlation function using Malvern technology software. g.
The subject of experiment [2] is Aβ42. Briefly: TEM of early events of Aβ42 aggregation. To be noted: absence of SP1; 1, 5, 10, 20 h.
Description: Transmission Electron Microscopy (TEM)
10μL aliquot from the stock peptide solution after incubation of 10 days (7 days for inhibition study) was added over the carbon-coated copper grid. Then 2% uranyl acetate solution (10μL) was added onto it and allowed to float for 1 min. The excess solution was removed using a blotting paper. The sample was dried at room temperature and kept in desiccators before taking TEM analysis on JEOL (Model: JEM 2100)
Experiment [3] in a line: Carboxyfluorescein dye leakage from LUVs, Aβ42. The following applies: Aβ42 50 μM.
Description: Carboxyfluorescein dye loaded Large Unilamellar Vesicles (LUVs) preparation LUVs were prepared using a mixture of DMPC, Cholesterol, and GM1 (68:30:2, molar). Lipids were dissolved in chloroform and methanol (2:1, 2 mM) in a glass vessel, and solvents were evaporated using nitrogen gas to make lipid films.3 The lipid films were hydrated with 500 µL of carboxyfluorescein (CF) solution (200 µM) in 50mM HEPES buffer of pH 7.4. Then, the solution was vortexed vigorously for 30 min for emulsification. Then the glass vial was dipped into the liquid nitrogen for instant cooling, and after 5 min the frozen solution was dipped into a water bath at 50-60 °C for freeze-thawing.4This step was repeated five times. The excess dye was removed by ultracentrifugation at 20000 rpm, the supernatant […]
Carboxyfluorescein dye loaded Large Unilamellar Vesicles (LUVs) Leakage Study For leakage study, peptide and lipids were taken in 1:20 molar ratios, and the dye release was monitored by fluorescence emission. Emission was measured at 516 nm, and excitation at 485 nm, 3 nm of bandwidth on a Fluoromax-4, Horiba instrument. The complete dye release from the vesicle was obtained using Triton X-100, and the final fluorescence was measured. The % leakage was calculated as, % 𝐿𝑒𝑎𝑘𝑎𝑔𝑒 = (𝑂𝑏𝑠𝑒𝑟𝑣𝑒𝑑 𝑓𝑙𝑢𝑜𝑟𝑒𝑠𝑐𝑒𝑛𝑐𝑒 –𝑖𝑛𝑖𝑡𝑖𝑎𝑙 𝑓𝑙𝑢𝑜𝑟𝑒𝑠𝑐𝑒𝑛𝑐𝑒) × 100 % … ..(4) (𝑇𝑜𝑡𝑎𝑙 𝑓𝑙𝑢𝑜𝑟𝑒𝑠𝑐𝑒𝑛𝑐𝑒 ‒ 𝑖𝑛𝑖𝑡𝑖𝑎𝑙 𝑓𝑙𝑢𝑜𝑟𝑒𝑠𝑐𝑒𝑛𝑐𝑒) […]

For Aβ42: Aβ42 peptide, the hydrodynamic diameter with Aβ42 [1] (1 h) is reported as roughly 8 nm; in the experiment on Aβ42 [1] (10 h), roughly 825 nm; in the experiment on Aβ42 [1] (20 h), roughly 940 nm. Also, in the experiment with Aβ42 [2], the “morphology of Aβ42 aggregates (TEM)” value is listed as “exhibited smaller aggregates at 1 h or 5 h”. The “dye leakage from LUVs” value in experiment [3] (absence of SP1, 5 h aged) is given as roughly 55%; in experiment [3] (absence of SP1, 10 h aged), roughly 23%.
